Results published in ChEMBL document CHEMBL1201862, “PubChem BioAssay data set” (2004).
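Five compound concentrations were applied to cells in 96-well plates for 48 hours; endpoints were derived by simple linear interpolation of the resulting dose-response curve. GI50 marks 50% less growth.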 The source made the active and inactive calls. No stated cut-off is given here; in the data, active = GI50 up to about 1.1 µM and inactive = higher.

Legend:
Test in all cases: NCI tumour cell line growth inhibition, 48 h
[1] = test system: 786-0
[2] = test system: A498
[3] = test system: A549
[4] = test system: ACHN
[5] = test system: BT-549
[6] = test system: CAKI-1
[7] = test system: CCRF-CEM
[8] = test system: COLO 205
[9] = test system: DLD-1
[10] = test system: DMS-114
[11] = test system: DMS-273
[12] = test system: DU-145
[13] = test system: EKVX
[14] = test system: HCC 2998
[15] = test system: HCT-116
[16] = test system: HCT-15
[17] = test system: HL-60
[18] = test system: HOP-18
[19] = test system: HOP-62
[20] = test system: HOP-92
[21] = test system: HT-29
[22] = test system: Hs-578T
[23] = test system: IGROV-1
[24] = test system: K562
[25] = test system: KM-20L2
[26] = test system: KM12
[27] = test system: LOX IMVI
[28] = test system: LXFL 529
[29] = test system: M14
[30] = test system: M19-MEL
[31] = test system: MCF7
[32] = test system: MDA-MB-231
[33] = test system: MDA-MB-435
[34] = test system: MDA-N
[35] = test system: MOLT-4
[36] = test system: Malme-3M
[37] = test system: NCI-H226
[38] = test system: NCI-H23
[39] = test system: NCI-H460
[40] = test system: NCI-H522
[41] = test system: NCI/ADR-RES
[42] = test system: OVCAR-3
[43] = test system: OVCAR-4
[44] = test system: OVCAR-5
[45] = test system: OVCAR-8
[46] = test system: PC-3
[47] = test system: RPMI-8226
[48] = test system: RXF 393
[49] = test system: RXF 631
[50] = test system: SF-268
[51] = test system: SF-295
[52] = test system: SF-539
[53] = test system: SK-MEL-28
[54] = test system: SK-MEL-2
[55] = test system: SK-MEL-5
[56] = test system: SK-OV-3
[57] = test system: SN12C
[58] = test system: SNB-19
[59] = test system: SNB-75
[60] = test system: SNB-78
[61] = test system: SW-620
[62] = test system: T47D
[63] = test system: TK-10
[64] = test system: U-251
[65] = test system: UACC-257
[66] = test system: UACC-62
[67] = test system: UO-31
[68] = test system: XF498

Measured: GI50

CN(/N=C/c1cccc2cccnc12)c1ccc([N+](=O)[O-])cc1[N+](=O)[O-]
inactive: [1] 13.3 µM | [2] 17.4 µM | [3] 48.5 µM | [4] 22 µM | [5] 21.3 µM | [6] 24.4 µM | [7] > 96.6 µM | [8] 86.3 µM | [9] 44.7 µM | [10] 20.2 µM | [11] 34.4 µM | [12] 65.5 µM | [13] 45.8 µM | [14] 71 µM | [15] 35.1 µM | [17] 40.8 µM | [18] > 100 µM | [19] 8.61 µM | [20] 14.8 µM | [21] > 100 µM | [22] 9.71 µM | [23] 24.5 µM | [24] > 100 µM | [25] > 100 µM | [26] > 100 µM | [27] 57.9 µM | [28] > 100 µM | [29] 54.7 µM | [30] > 78 µM | [31] 40.8 µM | [32] 23.1 µM | [33] > 100 µM | [34] > 100 µM | [35] > 100 µM | [36] 18.2 µM | [37] 24 µM | [38] 24.5 µM | [39] 46 µM | [40] 16.4 µM | [41] 39.8 µM | [42] 16.4 µM | [43] 20.7 µM | [44] 70.1 µM | [45] 32.7 µM | [46] 55 µM | [47] > 90.2 µM | [48] 17.1 µM | [49] 36.1 µM | [50] 18.5 µM | [51] 13 µM | [52] 11.3 µM | [53] > 88.1 µM | [54] 14.9 µM | [55] 52.5 µM | [56] 20.6 µM | [57] 46.1 µM | [58] 11.3 µM | [59] 10.1 µM | [60] 18.4 µM | [61] 99.5 µM | [62] 23.1 µM | [63] 29 µM | [64] 13.9 µM | [65] 82 µM | [66] 25.1 µM | [67] 37.3 µM | [68] 6.01 µM
63 µM: [16]
